# Values quoted from earlier work, collected in US6849617B2, “Tissue factor antagonists and methods of use thereof” (Sunol Molecular Corporation, priority 1999, dated 2005).
# Molecular target: tissue factor (TF) (Homo sapiens, UniProt P13726)
# Settings: as disclosed in U.S. application Ser. No. 09/406269
# Sequence of tissue factor (TF) (P13726 33-295): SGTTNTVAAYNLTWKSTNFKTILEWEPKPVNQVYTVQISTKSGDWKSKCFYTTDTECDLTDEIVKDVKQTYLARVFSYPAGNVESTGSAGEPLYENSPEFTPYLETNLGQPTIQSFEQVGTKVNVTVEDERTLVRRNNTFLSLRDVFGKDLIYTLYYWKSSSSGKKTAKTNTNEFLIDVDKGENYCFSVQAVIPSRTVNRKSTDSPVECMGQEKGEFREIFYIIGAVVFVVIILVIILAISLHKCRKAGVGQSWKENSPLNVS
smiles,measurement,value
NCCCC(O)(P(=O)(O)O)P(=O)(O)O [alendronic acid],TF antagonist activity,effective TF antagonist
